Data as given in patent US20250243210A1, “CRBN E3 LIGASE LIGAND COMPOUND, PROTEIN DEGRADER DEVELOPED BASED THEREON AND THEIR APPLICATIONS” (GLUETACS THERAPEUTICS (SHANGHAI) CO., LTD., priority 2021, published 2025).
Like-named read-outs stand apart in the source and are kept apart here. Blank lines part the entries; values can stand above or below the compound they belong to.

How the values were obtained:
DU-145 = test: CCK-8 tumor cell proliferation, DU-145; assay type: cell-based, Human; conditions: DU-145, 96 h, read-out: IC50 for inhibiting the proliferation of tumor cells, DU-145
How it was run: (§1)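 Cells grown at 37° C with 5% CO2, treated with compound for line-specific times, then viability read with CCK-8. IC50 derived from plotted growth inhibition curves.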

PC-3 = test: CCK-8 tumor cell proliferation, PC-3; assay type: cell-based, Human; conditions: PC-3, 96 h, read-out: IC50 for inhibiting the proliferation of tumor cells, PC-3
Method: (§2) Determination of half inhibitory concentration (IC50) of the compounds against tumor cells:
(§3) The tumor cells used herein were cultured in a cell culture medium listed in table 6 at 37° C. in an incubator with 5% CO2.
(§4) After the cells were treated with the compounds of the present disclosure for a period of time (the treatment times listed in Table 7), the cell viability detection reagent was added to the culture medium for cell viability assessment according to the instructions provided with the CCK-8 kit. […] The growth inhibition of the compounds of the present disclosure on cells was plotted by Prism Graphpad software, and the IC50 values of the compounds of the present disclosure were calculated therefrom.

A549 = test: CCK-8 tumor cell proliferation, A549; assay type: cell-based, Human; conditions: A549, 96 h, read-out: IC50 for inhibiting the proliferation of tumor cells, A549
Method: as §2
The tumor cells used herein were cultured in a cell culture medium listed in table 6 at 37° C. in an incubator with 5% CO2. Prior to experimentation, all cells used were correctly identified by STR profiling, and tested negative for mycoplasma through routine screenings.
IC50 values of the compounds of the present disclosure (including the compounds in Table 4 and compounds of examples 1-72) were measured using the Meilun Cell Counting Kit-S kit from Dalian Meilun Biotech Co., Ltd. Assay details are as follows: tumor cells were seeded in a 96-well plate at a density listed in Table 7. After 24 h, 100 μL of the inoculated cells were treated with 0.5 μL of the compounds of the present disclosure (including the compounds in Table 4 and compounds of examples 1-72) at 10 different successively decreasing concentrations (starting at the highest concentration of 10 μM; 5-fold serial dilutions). After the cells were treated with the compounds of the present disclosure for a period of time (the treatment times listed in Table 7), the cell viability detection reagent was added to the culture medium for cell viability assessment according to the instructions provided with the CCK-8 kit. […] The growth inhibition of the compounds of the present disclosure on cells was plotted by Prism Graphpad software, and the IC50 values of the compounds of the present disclosure were calculated therefrom.

SW620 = test: CCK-8 tumor cell proliferation, SW620; assay type: cell-based, Human; conditions: SW620, 96 h, read-out: IC50 for inhibiting the proliferation of tumor cells, SW620
Method: as §2, §3, §4

Hep3B2.1-7 = test: CCK-8 tumor cell proliferation, Hep3B2.1-7; assay type: cell-based, Human; conditions: Hep3B2.1-7, 96 h, read-out: IC50 for inhibiting the proliferation of tumor cells, Hep3B2.1-7
How it was run: (§5)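 Cells were seeded in 96-well plates and treated 24 h later with compounds at 10 concentrations, top 10 μM, 5-fold serial dilutions. Viability after the set treatment time was read with a CCK-8 kit, and IC50 was calculated from growth-inhibition curves.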

LNcap = test: CCK-8 tumor cell proliferation, LNcap; assay type: cell-based, Human; conditions: 96 h, read-out: IC50 for inhibiting the proliferation of tumor cells, LNcap
How it was run: as §5

WSU-DLCL2 = test: CCK-8 tumor cell proliferation, WSU-DLCL2; assay type: cell-based, Human; conditions: read-out: IC50 for inhibiting the proliferation of tumor cells, WSU-DLCL2
How it was run: as §1

MGC80-3 = test: CCK-8 tumor cell proliferation, MGC80-3; assay type: cell-based, Human; conditions: read-out: IC50 for inhibiting the proliferation of tumor cells, MGC80-3
How it was run: as §5

MM.1R = test: CCK-8 tumor cell proliferation, MM.1R; assay type: cell-based; conditions: 72 h, read-out: IC50 for inhibiting the proliferation of tumor cells, MM.1R
Method: as §2, §3, §4

SU-DHL-6 = test: CCK-8 tumor cell proliferation, SU-DHL-6; assay type: cell-based; conditions: Homo sapiens, SU-DHL-6, 72 h, read-out: IC50 for inhibiting the proliferation of tumor cells, SU-DHL-6
Method: as §2, §3, §4

Daudi = test: CCK-8 tumor cell proliferation, Daudi; assay type: cell-based; conditions: Homo sapiens, 96 h, read-out: IC50 for inhibiting the proliferation of tumor cells, Daudi
Method: as §2, §3, §4

Kasumi-1 = test: CCK-8 tumor cell proliferation, Kasumi-1; assay type: cell-based; conditions: Homo sapiens, Kasumi-1, 72 h, read-out: IC50 for inhibiting the proliferation of tumor cells, Kasumi-1
Method: as §2, §3, §4

[1] = Homo sapiens, MGC-803, MGC80-3, 96 h
[2] = Homo sapiens, WSUDLCL2, WSU-DLCL2, 96 h

Structure (SMILES): N#Cc1ccc(OC2CCC(NC(=O)c3ccc(N4CCC(CN5CC6CCC(C5)N6c5cc6c(cc5F)C(=O)N(C5CCC(=O)NC5=O)C6=O)CC4)nn3)CC2)cc1Cl (stereo not shown) [GT-02765, N-((1r,4r)-4-(3-chloro-4-cyanophenoxy)cyclohexyl)-6-(4-((8-(2-(2,6-dioxopiperidin-3-yl)-6-fluoro-1,3-dioxoisoindolin-5-yl)-3,8-diazabicyclo[3.2.1]octan-3-yl)methyl)piperidin-1-yl)pyridazine-3-carboxamide]
- IC50 (DU-145): 50 to 100 nM
- IC50 (PC-3): ≤ 50 nM
- IC50 (A549): ≤ 50 nM
- IC50 (SW620; CCK-8, Table 8 (AR-based)): ≤ 50 nM
- IC50 (Hep3B2.1-7): ≤ 50 nM
- IC50 (LNcap): ≤ 50 nM
- IC50 (WSU-DLCL2; WSU-DLCL2, 96 h): ≤ 50 nM
- IC50 (MGC80-3; MGC80-3, 96 h): ≤ 50 nM
- IC50 (MM.1R): 100 to 500 nM

- IC50 (DU-145): 500 to 1000 nM
- IC50 (PC-3): 500 to 1000 nM
- IC50 (SW620; CCK-8, Table 8 (AR-based)): 50 to 100 nM
- IC50 (LNcap): 500 to 1000 nM
- IC50 (WSU-DLCL2; WSU-DLCL2, 96 h): 1000 to 5000 nM
- IC50 (MGC80-3; MGC80-3, 96 h): 100 to 500 nM
- IC50 (MM.1R): 1000 to 5000 nM
Structure (SMILES): N#Cc1ccc(OC2CCC(NC(=O)c3ccc(N4CCC(CN5CCN(c6cc7c(cc6F)C(=O)N(C6CCC(=O)NC6=O)C7=O)CC5)CC4)nn3)CC2)cc1Cl (stereo not shown) [GT-03016, N-((1r,4r)-4-(3-chloro-4-cyanophenoxy)cyclohexyl)-6-(4-((4-(2-(2,6-dioxopiperidin-3-yl)-6-fluoro-1,3-dioxoisoindolin-5-yl)piperazin-1-yl-2,2,3,3,5,5,6,6-d8)methyl)piperidin-1-yl)pyridazine-3-carboxamide]

Structure (SMILES): CC1(C)[C@H](NC(=O)c2ccc(N3CCC(CN4CC5CCC(C4)N5c4cc5c(cc4F)C(=O)N(C4CCC(=O)NC4=O)C5=O)CC3)nn2)C(C)(C)[C@H]1Oc1ccc(C#N)c(Cl)c1 (stereo partly shown) [GT-03398, N-((1r,3r)-3-(3-chloro-4-cyanophenoxy)-2,2,4,4-tetramethylcyclobutyl)-6-(4-((8-(2-(2,6-dioxopiperidin-3-yl)-6-fluoro-1,3-dioxoisoindolin-5-yl)-3,8-diazabicyclo[3.2.1]octan-3-yl)methyl)piperidin-1-yl)pyridazine-3-carboxamide]
- IC50 (DU-145; Homo sapiens): 50 to 100 nM
- IC50 (PC-3; Homo sapiens): ≤ 50 nM
- IC50 (A549; Homo sapiens): 50 to 100 nM
- IC50 (LNcap; Homo sapiens): 50 to 100 nM
- IC50 (MGC80-3; [1]): ≤ 50 nM

Structure (SMILES): CC1(C)[C@H](NC(=O)c2ccc(N3CCC(CN4CC5CCC(C4)N5c4cc5c(cc4F)C(=O)N(C4CCC(=O)NC4=O)C5=O)CC3)nc2)C(C)(C)[C@H]1Oc1ccc(C#N)c(Cl)c1 (stereo partly shown) [GT-03402, N-((1r,3r)-3-(3-chloro-4-cyanophenoxy)-2,2,4,4-tetramethylcyclobutyl)-6-(4-((8-(2-(2,6-dioxopiperidin-3-yl)-6-fluoro-1,3-dioxoisoindolin-5-yl)-3,8-diazabicyclo[3.2.1]octan-3-yl)methyl)piperidin-1-yl)nicotinamide]
- IC50 (DU-145; Homo sapiens): 50 to 100 nM
- IC50 (PC-3; Homo sapiens): 50 to 100 nM
- IC50 (A549; Homo sapiens): 100 to 500 nM
- IC50 (LNcap; Homo sapiens): 50 to 100 nM
- IC50 (WSU-DLCL2; [2]): 100 to 500 nM

- IC50 (A549; Homo sapiens): 100 to 500 nM
- IC50 (Hep3B2.1-7; Homo sapiens): ≤ 50 nM
- IC50 (LNcap; Homo sapiens): 100 to 500 nM
- IC50 (WSU-DLCL2; [2]): 100 to 500 nM
- IC50 (MGC80-3; [1]): 100 to 500 nM
Structure (SMILES): CC1(C)[C@H](NC(=O)c2ccc(N3CCC(CN4CC5CCC4CN5c4ccc5c(c4)C(=O)N(C4CCC(=O)NC4=O)C5=O)CC3)nc2)C(C)(C)[C@H]1Oc1ccc(C#N)c(Cl)c1 (stereo partly shown) [GT-03481, N-((1r,3r)-3-(3-chloro-4-cyanophenoxy)-2,2,4,4-tetramethylcyclobutyl)-6-(4-((5-(2-(2,6-dioxopiperidin-3-yl)-1,3-dioxoisoindolin-5-yl)-2,5-diazabicyclo[2.2.2]octan-2-yl)methyl)piperidin-1-yl)nicotinamide]

Structure (SMILES): N#Cc1ccc(OC2CCC(NC(=O)c3ccc(N4CCC(CN5CC6CCC(C5)N6c5ccc6c(c5)C(=O)N(C5CCC(=O)NC5=O)C6=O)CC4)nn3)CC2)cc1Cl (stereo not shown) [GT-03488, N-((1r,4r)-4-(3-chloro-4-cyanophenoxy)cyclohexyl)-6-(4-((8-(2-(2,6-dioxopiperidin-3-yl)-1,3-dioxoisoindolin-5-yl)-3,8-diazabicyclo[3.2.1]octan-3-yl)methyl)piperidin-1-yl)pyridazine-3-carboxamide]
- IC50 (DU-145): 50 to 100 nM
- IC50 (A549): 50 to 100 nM
- IC50 (Hep3B2.1-7): ≤ 50 nM
- IC50 (LNcap): ≤ 50 nM
- IC50 (MGC80-3; MGC80-3, 96 h): ≤ 50 nM
- IC50 (MM.1R): ≤ 50 nM

- IC50 (DU-145; Homo sapiens): 1000 to 5000 nM
- IC50 (A549; Homo sapiens): 100 to 500 nM
- IC50 (Hep3B2.1-7; Homo sapiens): 50 to 100 nM
- IC50 (LNcap; Homo sapiens): 50 to 100 nM
- IC50 (WSU-DLCL2; [2]): 50 to 100 nM
- IC50 (MGC80-3; [1]): 50 to 100 nM
Structure (SMILES): CC1(C)[C@H](NC(=O)c2ccc(N3CCC(CN4CC5CCC4CN5c4cc5c(cc4F)C(=O)N(C4CCC(=O)NC4=O)C5=O)CC3)nc2)C(C)(C)[C@H]1Oc1ccc(C#N)c(Cl)c1 (stereo partly shown) [GT-03494, N-((1r,3r)-3-(3-chloro-4-cyanophenoxy)-2,2,4,4-tetramethylcyclobutyl)-6-(4-((5-(2-(2,6-dioxopiperidin-3-yl)-6-fluoro-1,3-dioxoisoindolin-5-yl)-2,5-diazabicyclo[2.2.2]octan-2-yl)methyl)piperidin-1-yl)nicotinamide]

Structure (SMILES): Cc1nc(Nc2ncc(C(=O)Nc3c(C)cccc3Cl)s2)cc(N2CCC(CN3C4CC3CN(c3ccc5c(c3)C(=O)N(C3CCC(=O)NC3=O)C5=O)C4)CC2)n1 (stereo not shown) [GT-03631, N-(2-chloro-6-methylphenyl)-2-((6-(4-((3-(2-(2,6-dioxopiperidin-3-yl)-1,3-dioxoisoindolin-5-yl)-3,6-diazabicyclo[3.1.1]heptan-6-yl)methyl)piperidin-1-yl)-2-methylpyrimidin-4-yl)amino)thiazole-5-carboxamide]
- IC50 (SU-DHL-6): ≤ 50 nM
- IC50 (Daudi): 100 to 500 nM
- IC50 (Kasumi-1): 100 to 500 nM

Structure (SMILES): CN(C)C(=O)c1cc2cnc(Nc3ccc(N4CCC(CN5CC6CCC(C5)N6c5ccc6c(c5)C(=O)N(C5CCC(=O)NC5=O)C6=O)CC4)cn3)nc2n1C1CCCC1 (stereo not shown) [GT-03651, 7-cyclopentyl-2-((5-(4-((8-(2-(2,6-dioxopiperidin-3-yl)-1,3-dioxoisoindolin-5-yl)-3,8-diazabicyclo[3.2.1]octan-3-yl)methyl)piperidin-1-yl)pyridin-2-yl)amino)-N,N-dimethyl-7H-pyrrolo[2,3-d]pyrimidine-6-carboxamide]
- IC50 (SW620; Homo sapiens, SW-620, CCK-8, Table 9 (CDK4/6-based)): 100 to 500 nM

- IC50 (SW620; CCK-8, Table 8 (AR-based)): 100 to 500 nM
Structure (SMILES): N#Cc1ccc(OC2CCC(NC(=O)c3ccc(N4CCC(CN5CC6CCC5CN6c5cc6c(cc5F)C(=O)N(C5CCC(=O)NC5=O)C6=O)CC4)nn3)CC2)cc1Cl (stereo not shown) [GT-03773, N-((1r,4r)-4-(3-chloro-4-cyanophenoxy)cyclohexyl)-6-(4-((5-(2-(2,6-dioxopiperidin-3-yl)-6-fluoro-1,3-dioxoisoindolin-5-yl)-2,5-diazabicyclo[2.2.2]octan-2-yl)methyl)piperidin-1-yl)pyridazine-3-carboxamide]

- IC50 (SW620; Homo sapiens, SW-620, CCK-8, Table 9, numeric value): > 10000 nM
Structure (SMILES): CN(C)C(=O)c1cc2cnc(Nc3ccc(N4CCNCC4)cn3)nc2n1C1CCCC1 [Ribociclib, reference compound]
